{"source": "patent US12600724B2", "about": "“Indole alkaloid and preparation method and use thereof” (NANJING UNIVERSITY OF CHINESE MEDICINE, priority 2022, dated 2026)", "key": {"[1]": {"system": "STZ-induced type-1 diabetes model mice", "test": "Motor nerve conduction velocity, type-1 diabetic peripheral neuropathy mice", "assay_type": "in vivo, C57BL/6J mice", "details": "for Motor nerve conduction velocity: type-1 mice, S26 46.8 mg/kg/day intragastric, Mean ± SD, n = 3", "experimental": "Type-1 diabetes mice: male 8-week-old C57BL/6J mice were purchased from Beijing Vital River Laboratory Animal Technology Co., Ltd. One week after adaptive feeding, STZ (150 mg/kg) was injected intraperitoneally, and one week later, tail vein blood collection was carried out for blood sugar detection, and the mice with random blood sugar greater than 16 mmol/L were selected. Six weeks after STZ injection, the mice were divided into a control group (non-diabetic mice), a model group (DPN mice) and a S26 administration group (46.8 mg/kg/day) respectively according to body weight and blood sugar, and administrated intragastrically for four weeks continuously. Before administration, 2 weeks and 4 weeks after administration, motor nerve conduction velocities (MNCV) of left and right sides of each group of mice were detected, and a mean value of the velocities of two sides was taken as a nerve conduction velocity of each mouse. Specific experimental method: (1) electrode placement: a stimulating electrode was placed on a nerve trunk, a recording electrode was placed on a muscle belly, and a reference electrode was placed on a muscle tendon; and a ground electrode was placed between the stimulating electrode and the recording electrode. (2) Calculation of motor nerve conduction velocity: distal and proximal ends of the nerve trunk were stimulated in a super-strong manner, a compound muscle action potential could be recorded twice on a muscle innervated by the nerve, different latent periods of the compound muscle action potentials were measured, and a distance between the distal and proximal ends was divided by a difference between the two latent periods, so as to obtain the nerve conduction velocity. Computational formula: nerve conduction velocity (m/s)=distance between two ends (cm)×10/difference between two latent periods (ms)."}, "[2]": {"system": "STZ-induced type-1 diabetes model mice", "test": "Latent period of thermal pain, type-1 diabetic peripheral neuropathy mice", "assay_type": "in vivo, C57BL/6J mice", "details": "type-1 mice, S26 46.8 mg/kg/day intragastric, Mean ± SD, n = 6", "experimental": "(§1) Type-1 diabetes mice: male 8-week-old C57BL/6J mice were purchased from Beijing Vital River Laboratory Animal Technology Co., Ltd. One week after adaptive feeding, STZ (150 mg/kg) was injected intraperitoneally, and one week later, tail vein blood collection was carried out for blood sugar detection, and the mice with random blood sugar greater than 16 mmol/L were selected. Six weeks after STZ injection, the mice were divided into a control group (non-diabetic mice), a model group (DPN mice) and a S26 administration group (46.8 mg/kg/day) respectively according to body weight and blood sugar, and administrated intragastrically for four weeks continuously. A response of an animal to infrared thermal stimulation was detected weekly by an infrared plantar pain threshold detector (37370, purchased from Ugo Basile Company) before and after administration to characterize a thermal pain sensitivity of the animal. A mouse was put into a single cage equipped for the machine in advance to adapt for 20 minutes, and then plantar thermal stimulation was carried out on the mouse. […] The thermal pain sensitivity was evaluated by comparing the thermal stimulation time."}, "[3]": {"system": "type-2 diabetes model db/db mice", "test": "Latent period of thermal pain, type-2 diabetes db/db mice", "assay_type": "in vivo, BKS db/db mice", "details": "S26 46.8 mg/kg/day intragastric, Mean ± SD, n = 6", "experimental": "as §1, with “Type-2” for “Type-1”, “18-week-old BKS db/db” for “8-week-old C57BL/6J”, “Jiangsu Gempharmatech Biotechnology” for “Beijing Vital River Laboratory Animal Technology”, “feeding,” for “feeding, STZ (150 mg/kg) was injected intraperitoneally, and one week later, tail vein blood collection was carried out for blood sugar detection, and the mice with random blood sugar greater than 16 mmol/L were selected. Six weeks after STZ injection,”, “(db/m” for “(non-diabetic”, “(db/db” for “(DPN”"}, "[4]": {"system": "DRG neurons of type-2 diabetes peripheral neuropathy model mice", "test": "Axon growth of DRG neuron cells taken after administration, type-2 mice", "assay_type": "in vivo, BKS db/db mice", "experimental": "Type-2 diabetes mice: male 18-week-old BKS db/db mice were purchased from Jiangsu Gempharmatech Biotechnology Co., Ltd. One week after adaptive feeding, the mice were divided into a control group (db/m mice), a model group (db/db mice) and a S26 administration group (46.8 mg/kg/day) respectively according to body weight and blood sugar, and administrated intragastrically for four weeks continuously. After administration, a fresh DRG neuron of a mouse was extracted to digest into a single-cell suspension and then inoculated into a culture plate for adherent culture overnight. A β-tubulin III (Sigma) protein of the DRG neuron cells was labeled by an immunofluorescence staining method. The protein was imaged by a fluorescence microscope (Leica), and a total axon length of a single DRG neuron cell was tracked by a Neuro J plug-in in Image J software."}, "[5]": {"system": "bleomycin-induced pulmonary fibrosis mouse", "test": "Bleomycin-induced pulmonary fibrosis mouse, Micro-CT volume of normal lung tissue", "assay_type": "in vivo, C57BL/6J mice", "details": "for Volume of normal lung tissue: bleomycin 5 mg/kg model, S26 46.8 mg/kg intragastric, Mean ± SD, n = 4", "excerpt": "In this experiment, the pulmonary fibrosis model was established by oral tracheal instilling of a bleomycin solution into the mouse, and then the compound S26 was administrated for treatment. A volume of a normal lung tissue of the mouse was quantified by carrying out CT photographing and three-dimensional reconstruction on a lung of the mouse to evaluate the influence of the vinpocetine derivative S26 on the degree of the bleomycin-induced pulmonary fibrosis of the mouse. Male 8-week-old C57BL/6J mice were purchased from Beijing Weitong Lihua Experimental Animal Technology Co., Ltd. One week after adaptive feeding, a lung development condition of the mouse was examined by micro-CT. The mice were divided into a blank control group (normal mice), a model group and a S26 administration group (46.8 mg/kg) according to a volume of a normal lung tissue. Subsequently, an inhalation anesthesia machine was used to carry out isoflurane inhalation to induce anesthesia. The mice in the model group and the administration group were given 5 mg/kg bleomycin solution through oral tracheal instilling to establish the pulmonary fibrosis model, while the mice in the control group were given the same volume of bleomycin solvent. The mice were administrated on day 8 after the establishment of the model, and were intragastrically administrated for 20 days continuously. Micro-CT imaging was carried out before the establishment of the model and on day 8, day 18 and day 28 after the establishment of the model to observe pulmonary fibrosis of the mice."}}}
{"smiles": "CC[C@@]12C=C(C(=O)NCC(=O)OCCOCCOCCOCCO)n3c4c(c5ccccc53)CCN(CCC1)[C@H]42", "note": "[Compound S26]", "values": [{"measurement": "Motor nerve conduction velocity and anesthesia symptom (in words)", "setting": "[1]; type-1 diabetes peripheral neuropathy mouse, Tables 2 to 4", "result": "obviously improve"}, {"measurement": "Motor nerve conduction velocity", "setting": "[1]; week 0 of administration", "result": "20.37 ± 3.21^ m/s"}, {"measurement": "Motor nerve conduction velocity", "setting": "[1]; week 2 of administration", "result": "27.48 ± 2.97", "unit": "m/s"}, {"measurement": "Motor nerve conduction velocity", "setting": "[1]; week 4 of administration", "result": "31.11 ± 3.85", "unit": "m/s"}, {"measurement": "Latent period of thermal pain", "setting": "[2]; week 0 of administration", "result": "11.33 ± 0.67 ^ s"}, {"measurement": "Latent period of thermal pain", "setting": "[2]; week 1 of administration", "result": "8.19 ± 0.69", "unit": "s"}, {"measurement": "Latent period of thermal pain", "setting": "[2]; week 2 of administration", "result": "6.97 ± 0.73", "unit": "s"}, {"measurement": "Latent period of thermal pain", "setting": "[2]; week 3 of administration", "result": "6.16 ± 1.33", "unit": "s"}, {"measurement": "Latent period of thermal pain", "setting": "[2]; week 4 of administration", "result": "6.38 ± 0.54", "unit": "s"}, {"measurement": "Latent period of thermal pain", "setting": "[3]; week 0 of administration", "result": "15.55 ± 2.29 ^ s"}, {"measurement": "Latent period of thermal pain", "setting": "[3]; week 1 of administration", "result": "13.50 ± 2.05 ^ s"}, {"measurement": "Latent period of thermal pain", "setting": "[3]; week 2 of administration", "result": "12.00 ± 2.28", "unit": "s"}, {"measurement": "Latent period of thermal pain", "setting": "[3]; week 3 of administration", "result": "8.62 ± 1.51", "unit": "s"}, {"measurement": "Latent period of thermal pain", "setting": "[3]; week 4 of administration", "result": "7.65 ± 1.30", "unit": "s"}, {"measurement": "Total axon length", "setting": "[4]; Type-2 db/db mice, DRG neurons extracted after four weeks of S26 46.8 mg/kg/day intragastric, Mean (SD in the cell below), n = 6", "result": 6070.18, "unit": "pixel"}, {"measurement": "Axon growth conditions of DRG neurons (in words, FIG. 1)", "setting": "[4]; type-2 diabetes peripheral neuropathy model mice", "result": "obviously improve"}, {"measurement": "Volume of normal lung tissue", "setting": "[5]; day 0 of administration (day 8 after model)", "result": "328.98 ± 34.15^ mm^3"}, {"measurement": "Volume of normal lung tissue", "setting": "[5]; day 10 of administration (day 18 after model)", "result": "486.71 ± 48.61^# mm^3"}, {"measurement": "Volume of normal lung tissue", "setting": "[5]; day 20 of administration (day 28 after model)", "result": "536.70 ± 58.44^## mm^3"}, {"measurement": "Volume of the normal lung tissue (in words, FIG. 3)", "setting": "[5]; pulmonary fibrosis model mouse", "result": "obviously increase"}]}
